In ChEMBL document CHEMBL1142967, “Bis-cycloSal-d4T-monophosphates: drugs that deliver two molecules of bioactive nucleotides” (J Med Chem, 2007):

Tests used:
[1] = Hydrolytic stability in 25 mM phosphate buffer at pH 7.3, 37 degC; type: physicochemical; conditions: for half-life: phosphate buffer; for t1/2: buffer
Cholinesterase = Cholinesterase (Homo sapiens, UniProt P06276); experiment: Inhibition of human serum BChE
[2] = system: Human immunodeficiency virus 1; experiment: Antiviral activity against HIV1 in CEM/0 cells; type: functional, organism-based
[3] = system: Human immunodeficiency virus 2; experiment: Antiviral activity against H1V2 in CEM/0 cells; type: functional, organism-based
[4] = system: Human immunodeficiency virus 2; experiment: Antiviral activity against H1V2 in TK-deficient CEM cells; type: functional, organism-based, CCRF-CEM
[5] = Cytotoxicity against CEM/0 cells; type: cell-based, CCRF-CEM; conditions: human
[6] = Human immunodeficiency virus 1, CCRF-CEM
[7] = Human immunodeficiency virus 2, CCRF-CEM

Sequence of Cholinesterase (P06276 whole entry): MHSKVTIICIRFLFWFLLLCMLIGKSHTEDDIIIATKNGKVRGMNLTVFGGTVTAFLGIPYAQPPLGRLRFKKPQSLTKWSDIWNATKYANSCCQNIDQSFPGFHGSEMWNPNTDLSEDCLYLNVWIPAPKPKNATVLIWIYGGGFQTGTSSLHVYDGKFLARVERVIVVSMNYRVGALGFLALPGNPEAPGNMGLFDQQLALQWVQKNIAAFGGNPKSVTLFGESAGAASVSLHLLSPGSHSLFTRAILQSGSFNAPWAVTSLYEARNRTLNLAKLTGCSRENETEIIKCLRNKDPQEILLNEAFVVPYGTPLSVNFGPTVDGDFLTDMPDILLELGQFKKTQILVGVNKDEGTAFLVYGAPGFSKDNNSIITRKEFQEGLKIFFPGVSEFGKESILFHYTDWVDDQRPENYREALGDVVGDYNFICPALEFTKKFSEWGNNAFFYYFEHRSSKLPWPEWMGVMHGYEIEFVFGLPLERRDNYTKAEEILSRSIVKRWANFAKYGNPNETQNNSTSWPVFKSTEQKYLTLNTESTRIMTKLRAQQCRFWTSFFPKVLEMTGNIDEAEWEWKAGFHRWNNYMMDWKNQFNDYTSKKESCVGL

Row | SMILES | half-life [1] [min] | IC50 (Cholinesterase) [µM] | EC50 [2, 6] [nM] | EC50 [3, 7] [nM] | EC50 [4, 7] [nM] | CC50 ([5]; CEM/0 cells) [µM] | EC50 ([2]; cem/0) [nM] | EC50 ([3]; cem/0) [nM] | EC50 ([4]; ccrf-cem) [nM] | CC50 ([5]; ccrf-cem) [µM] | t1/2 [1] [h]
1 | Cc1cc2c(c(-c3cc(C)cc4c3OP(=O)(OC[C@@H]3C=C[C@H](n5cc(C)c(=O)[nH]c5=O)O3)OC4)c1)OP(=O)(OC[C@@H]1C=C[C@H](n3cc(C)c(=O)[nH]c3=O)O1)OC2 (stereo not given in full) | 720 | > 50 | 370 | 410 | 1600 | 67.1 |  |  |  |  | 
2 | Cc1cn([C@H]2C=C[C@@H](COP3(=O)OCc4cccc(-c5cccc6c5OP(=O)(OC[C@@H]5C=C[C@H](n7cc(C)c(=O)[nH]c7=O)O5)OC6)c4O3)O2)c(=O)[nH]c1=O (single isomer, unassigned; diastereomer 2) |  | > 50 |  |  |  |  | 210 | 220 | 2370 | 90.7 | 
3 | Cc1cn([C@H]2C=C[C@@H](COP3(=O)OCc4cccc(-c5cccc6c5OC(C)(C)OC6)c4O3)O2)c(=O)[nH]c1=O (stereo in doubt; 33) |  | 4.7 |  |  |  |  | 350 |  | 1070 | 65 | 16
4 | Cc1cn([C@H]2C=C[C@@H](COP3(=O)OCc4cccc(-c5cccc(CO)c5O)c4O3)O2)c(=O)[nH]c1=O (stereo in doubt; 29(Sp)) | 66 | 0.79 | 340 | 400 |  | 78.7 |  |  | 1500 |  | 
5 | Cc1cn([C@H]2C=C[C@@H](COP3(=O)OCc4cccc(-c5cccc(CO)c5O)c4O3)O2)c(=O)[nH]c1=O (stereo in doubt; 29) |  | 2.3 |  |  |  |  |  |  |  |  | 1.3
6 | Cc1cn([C@H]2C=C[C@@H](COP3(=O)OCc4cccc(-c5cccc(CO)c5O)c4O3)O2)c(=O)[nH]c1=O (stereo in doubt; 29(Rp)) |  | > 50 |  |  |  |  | 270 | 500 | 700 | 69.4 | 1.4
7 | Cc1cn([C@H]2C=C[C@@H](COP3(=O)OCc4cccc(-c5cccc6c5OC(C)(C)OC6)c4O3)O2)c(=O)[nH]c1=O (stereo in doubt; 33(Sp)) | 840 | 3.6 | 500 | 400 |  | 89.3 |  |  | 3000 |  | 
8 | OCc1cccc(-c2cccc(CO)c2O)c1O |  | > 50 | > 150000 | > 150000 |  | > 150 |  |  |  |  | 
9 | Cc1cn([C@H]2C=C[C@@H](COP3(=O)OCc4cccc(-c5cccc6c5OP(=O)(OC[C@@H]5C=C[C@H](n7cc(C)c(=O)[nH]c7=O)O5)OC6)c4O3)O2)c(=O)[nH]c1=O (stereo in doubt; 6) |  | 40 | 190 | 270 | 2330 |  |  |  |  | 27.8 | 
10 | Cc1cn([C@H]2C=C[C@@H](COP3(=O)OCc4cccc(-c5cccc6c5OC(C)(C)OC6)c4O3)O2)c(=O)[nH]c1=O (stereo in doubt; 33(Rp)) |  | > 50 |  |  |  |  | 360 |  | 550 | 55.3 | 21
11 | Cc1cn([C@H]2C=C[C@@H](COP(=O)(O)OCc3cccc(-c4cccc5c4OP(=O)(OC[C@@H]4C=C[C@H](n6cc(C)c(=O)[nH]c6=O)O4)OC5)c3O)O2)c(=O)[nH]c1=O (stereo not given in full) |  | 2.3 |  |  |  |  |  |  |  |  | 
12 | Cc1cc(CO)c(O)c(-c2cc(C)cc(CO)c2O)c1 |  | > 50 | > 150000 | > 150000 |  | > 150 |  |  |  |  | 
13 | Cc1cn([C@H]2C=C[C@@H](CO)O2)c(=O)[nH]c1=O [STAVUDINE] |  |  | 250 | 190 | 51000 | 105 |  |  |  |  | 
14 | Cc1cn([C@H]2C=C[C@@H](COP3(=O)OCc4cccc(-c5cccc6c5OP(=O)(OC[C@@H]5C=C[C@H](n7cc(C)c(=O)[nH]c7=O)O5)OC6)c4O3)O2)c(=O)[nH]c1=O (single isomer, unassigned; diastereomer 1) |  | 14 |  |  |  |  | 250 | 300 | 3330 | 107 | 
15 | Cc1cn([C@H]2C=C[C@@H](COP3(=O)OCc4cccc(-c5ccccc5)c4O3)O2)c(=O)[nH]c1=O (stereo not given in full) | 306 | 0.35 | 130 | 270 | 280 | 22 |  |  |  |  | 
